Drawing on patent US20160185797A1, “ALKYNYL ALCOHOLS AND METHODS OF USE” (Genentech, Inc., priority 2013, published 2016), this text covers IC50 and Ki for 23 molecules.

By IC50 is commonly meant the concentration at which inhibition is half-maximal. As a reminder, the Ki is the dissociation constant of the complex between target and ligand, obtained from inhibition or displacement.

The test system of experiment [1] is REL-A (p65) nuclear translocation in HeLa cells. The experiment can be described thus: REL-A (p65) nuclear translocation assay in HeLa cells, TNF-α stimulated (classical NF-kB signaling), high content imaging. Type of experiment: cell-based. The conditions noted are these: compound 4.5 h, then 10 ng/mL TNF-α for 30 minutes, read-out: REL-A HeLa Transloc Assay (IC50). The essentials:
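HeLa cells in medium with 10% fetal bovine serum were exposed to compounds (0.2% DMSO final) for 4.5 hours, then stimulated with 10 ng/mL TNF-α for 30 minutes. After fixation in 4% paraformaldehyde and permeabilization with 0.1% Triton X-100, cells were stained with 400 ng/mL anti-REL-A (p65) antibody, an Alexa488 secondary and DRAQ5. Opera imaging quantified the nuclear-to-cytoplasmic signal ratio to give IC50.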

Experiment [2] has as its target T1, nuclear factor-kappa B (NF-kB)-inducing kinase (NIK) (Homo sapiens, UniProt Q99558).
T1 construct: made in house; host or cells: baculovirus-infected insect cells
The experiment can be described thus: NIK enzyme inhibition assay (Transcreener ADP fluorescence polarization, NIK ADP-FP). It counts as biochemical.
Procedure: NIK Enzyme Inhibition Assay:
The ability of the nuclear factor-kappa B (NF-kB)-inducing kinase (NIK) to catalyze the hydrolysis of adenosine-5′-triphosphate (ATP) was monitored using the Transcreener ADP (adenosine-5′-diphosphate) assay (BellBrook Labs). […] Reactions were quenched by the addition of 20 mM 2,2′,2″,2′″-(ethane-1,2-diyldinitrilo)tetraacetic acid and 0.01% Brij 35. The tracer bound to the antibody was displaced by the ADP generated during the NIK reaction, which causes a decrease in fluorescence polarization that was measured by laser excitation at 633 nm with a Fluorescence Correlation Spectroscopy Plus reader (Evotec AG). Equilibrium dissociation constant (Ki) values for NIK inhibitors are calculated from plots of activity vs. inhibitor concentration using Morrison's quadratic equation that accounts for the potential of tight binding, and by also applying the conversion factor that accounted for competitive inhibition and the concentration of substrate used in the assay relative to its Michaelis constant (Km).

Experiment [3] deals with p52 (NF-kB2) nuclear translocation in HeLa cells. As to the kind of experiment: p52 (NF-kB2) nuclear translocation assay in HeLa cells, anti-lymphotoxin beta receptor antibody stimulated (non-classical NF-kB signaling), high content imaging. Type of experiment: cell-based. The settings on record: 100 ng/mL anti-lymphotoxin beta receptor antibody for 5 hours, read-out: p52 HeLa Transloc Assay (IC50). The essentials: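 HeLa cells in 10% FBS medium were treated with compound (0.2% DMSO final) and stimulated with 100 ng/mL anti-lymphotoxin beta receptor antibody for 5 h. Fixed cells were immunostained for p52 and imaged with DRAQ5 nuclear stain. Translocation is the nuclear to cytoplasmic intensity ratio, […].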

Where [4] appears, read: purified NIK 0.5 nM, 10 μM ATP, pH 7.2, Ki from Morrison's quadratic equation.

Where two headings read alike, the source gives them in different places.

T1 sequence (Q99558 whole entry): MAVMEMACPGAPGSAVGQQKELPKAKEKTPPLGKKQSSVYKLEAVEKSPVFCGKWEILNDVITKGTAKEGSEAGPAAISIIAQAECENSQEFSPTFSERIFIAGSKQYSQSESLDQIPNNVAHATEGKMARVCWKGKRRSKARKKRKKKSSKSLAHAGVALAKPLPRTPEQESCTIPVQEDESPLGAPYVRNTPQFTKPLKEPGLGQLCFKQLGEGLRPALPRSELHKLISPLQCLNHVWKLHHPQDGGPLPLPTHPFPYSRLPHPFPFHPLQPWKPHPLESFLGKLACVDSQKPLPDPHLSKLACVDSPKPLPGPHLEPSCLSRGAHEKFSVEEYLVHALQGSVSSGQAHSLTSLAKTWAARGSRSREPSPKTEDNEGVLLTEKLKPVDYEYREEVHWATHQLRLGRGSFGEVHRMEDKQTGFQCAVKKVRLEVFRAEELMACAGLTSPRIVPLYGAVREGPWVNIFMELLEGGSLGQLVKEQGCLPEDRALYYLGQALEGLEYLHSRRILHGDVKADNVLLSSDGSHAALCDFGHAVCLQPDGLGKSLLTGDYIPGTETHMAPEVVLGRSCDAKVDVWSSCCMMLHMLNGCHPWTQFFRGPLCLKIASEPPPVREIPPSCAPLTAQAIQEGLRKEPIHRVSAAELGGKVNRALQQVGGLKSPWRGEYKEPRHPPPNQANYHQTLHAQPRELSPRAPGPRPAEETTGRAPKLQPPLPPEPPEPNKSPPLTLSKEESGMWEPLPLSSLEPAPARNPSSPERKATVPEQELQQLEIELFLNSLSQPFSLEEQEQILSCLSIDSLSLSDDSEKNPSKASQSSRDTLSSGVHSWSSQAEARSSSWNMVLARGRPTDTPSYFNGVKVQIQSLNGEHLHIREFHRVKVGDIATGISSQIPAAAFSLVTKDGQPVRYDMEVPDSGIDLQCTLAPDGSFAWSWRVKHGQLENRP

As to `CN1CC[C@@](O)(C#Cc2cccc(-c3nc(C(N)=O)c4ccn(C)c4n3)c2)C1=O` [Example 39, 2-[3-[2-[(3R)-3-hydroxy-1-methyl-2-oxo-pyrrolidin-3-yl]ethynyl]phenyl]-7-methyl-pyrrolo[2,3-d] pyrimidine-4-carboxamide], the IC50 in experiment [1] (Homo sapiens, HeLa) is 7700 nM; in experiment [3] (Homo sapiens), 20.9 nM. Further, in experiment [2], the affinity, expressed as Ki, was 0.13 nM.
As for `CN1CC[C@@](O)(C#Cc2cccc(-c3nc(C(N)=O)c4cccc(F)c4n3)c2)C1=O` [Example 41, 8-fluoro-2-[3-[2-[(3R)-3-hydroxy-1-methyl-2-oxo-pyrrolidin-3-yl]ethynyl]phenyl]quinazoline-4-carboxamide], the IC50 in experiment [1] (Homo sapiens, HeLa) was more than 20000 nM; in experiment [3] (Homo sapiens), 26.4 nM. The affinity in experiment [2], expressed as Ki, was 0.22 nM.
The matching figures for `CN1CC[C@@](O)(C#Cc2cccc(-c3nc(C(N)=O)c4cnn(C)c4n3)c2)C1=O` [Example 42, 6-(3-[2-[(3R)-3-hydroxy-1-methyl-2-oxopyrrolidin-3-yl]ethynyl]phenyl)-1-methyl-1H-pyrazolo[3,4-d] pyrimidine-4-carboxamide]: more than 20000 nM, 10.9 nM and 0.1 nM.
As to `CN1CC[C@@](O)(C#Cc2cccc(-c3nc(C(N)=O)c4ccc(F)cc4n3)c2)C1=O` [Example 43, 7-fluoro-2-(3-[2-[(3R)-3-hydroxy-1-methyl-2-oxopyrrolidin-3-yl]ethynyl]phenyl)quinazoline-4-carboxamide], the 50% inhibitory concentration (IC50) in experiment [1] (Homo sapiens, HeLa) is more than 20000 nM; in experiment [3] (Homo sapiens) it was 14.1 nM. The molecule also gave a Ki in experiment [2] of 0.08 nM.
In the same order, the values of `COc1ccc2c(C(N)=O)nc(-c3cccc(C#C[C@]4(O)CCN(C)C4=O)c3)nc2c1` [Example 44, 2-(3-[2-[(3R)-3-hydroxy-1-methyl-2-oxopyrrolidin-3-yl]ethynyl]phenyl)-7-methoxyquinazoline-4-carboxamide] are more than 20000 nM, 17.5 nM and 0.11 nM.
On to `CN1CC[C@@](O)(C#Cc2cccc(-c3nc(C(N)=O)cc4c3CCC4)c2)C1=O` [Example 46, 1-(3-[2-[(3R)-3-hydroxy-1-methyl-2-oxopyrrolidin-3-yl]ethynyl]phenyl)-5H,6H,7H-cyclopenta[c] pyridine-3-carboxamide], for which the IC50 is more than 20000 nM in experiment [1] (Homo sapiens, HeLa) and 103 nM in experiment [3] (Homo sapiens). Affinity in experiment [2] was put at a Ki of 0.62 nM.
Turning to `CN1CC[C@@](O)(C#Cc2cccc(-c3nc(C(N)=O)cc4c3ncn4C)c2)C1=O` [Example 47, 4-[3-[2-[(3R)-3-hydroxy-1-methyl-2-oxo-pyrrolidin-3-yl]ethynyl]phenyl]-1-methyl-imidazo[4,5-c] pyridine-6-carboxamide], the half-maximal inhibitory concentration (IC50) in experiment [1] (Homo sapiens, HeLa) was not below 20000 nM; in experiment [3] (Homo sapiens), 270 nM. In addition, affinity in experiment [2] was put at a Ki of 0.94 nM.
Consider `CN1CC[C@@](O)(C#Cc2cccc(-c3nc(C(N)=O)cn4ccnc34)c2)C1=O` [Example 48, 8-[3-[2-[(3R)-3-hydroxy-1-methyl-2-oxo-pyrrolidin-3-yl]ethynyl]phenyl] imidazo[1,2-a]pyrazine-6-carboxamide], for which the IC50 in experiment [1] was not below 20000 nM; in experiment [3], 122 nM. The same molecule gave a Ki in experiment [2] (setting [4]) of 0.39 nM.
Take `CN1CC[C@@](O)(C#Cc2cccc(-c3cc4cc[nH]c4c(C(N)=O)n3)c2)C1=O` [Example 49, 5-[3-[2-[(3R)-3-hydroxy-1-methyl-2-oxo-pyrrolidin-3-yl]ethynyl]phenyl]-1H-pyrrolo [2,3-c]pyridine-7-carboxamide]: the IC50 is not below 2000 nM in experiment [1] (Homo sapiens, HeLa) and 8.2 nM in experiment [3] (Homo sapiens). Further, the affinity in experiment [2], expressed as Ki, was 0.05 nM.
The matching figures for `CN1CC[C@@](O)(C#Cc2cccc(-c3nc(C(N)=O)nc4c3ccn4C)c2)C1=O` [Example 50, 4-[3-[2-[(3R)-3-hydroxy-1-methyl-2-oxo-pyrrolidin-3-yl]ethynyl]phenyl]-7-methyl-pyrrolo[2,3-d]pyrimidine-2-carboxamide]: not below 20000 nM, 346 nM and 1.08 nM.
In the same order, the values of `CN1CC[C@@](O)(C#Cc2cccc(-c3cc(-n4cncn4)cc(C(N)=O)n3)c2)C1=O` [Example 51, 6-[3-[2-[(3R)-3-hydroxy-1-methyl-2-oxo-pyrrolidin-3-yl]ethynyl]phenyl]-4-(1,2,4-triazol-1-yl)pyridine-2-carboxamide] are not below 20000 nM, 129 nM and 0.23 nM.
In the same order, the values of `CN1CC[C@@](O)(C#Cc2cccc(-c3cc(-n4cccn4)cc(C(N)=O)n3)c2)C1=O` [Example 52, 6-[3-[2-[(3R)-3-hydroxy-1-methyl-2-oxo-pyrrolidin-3-yl]ethynyl]phenyl]-4-pyrazol-1-yl-pyridine-2-carboxamide] are not below 20000 nM, 26 nM and 0.13 nM.
`CN1CC[C@@](O)(C#Cc2cccc(-c3cc(-c4ccnn4C)nc(C(N)=O)n3)c2)C1=O` [Example 53, 4-[3-[2-[(3R)-3-hydroxy-1-methyl-2-oxo-pyrrolidin-3-yl]ethynyl]phenyl]-6-(2-methylpyrazol-3-yl) pyrimidine-2-carboxamide]: the concentration for half-maximal inhibition (IC50) in experiment [1] (Homo sapiens, HeLa) was not below 20000 nM; in experiment [3] (Homo sapiens) it was 725 nM. Also, the affinity in experiment [2], expressed as Ki, was 0.67 nM.
`CN1CC[C@@](O)(C#Cc2cccc(-c3nc(C(N)=O)c(N)cc3F)c2)C1=O` [Example 59, 3-amino-5-fluoro-6-[3-[2-[(3R)-3-hydroxy-1-methyl-2-oxo-pyrrolidin-3-yl]ethynyl]phenyl] pyridine-2-carboxamide]: the IC50 in experiment [1] (Homo sapiens, HeLa) stood at 6320 nM; in experiment [3] (Homo sapiens), 23.2 nM. In addition, affinity in experiment [2] was put at a Ki of 0.16 nM.
Consider `CN1CC[C@@](O)(C#Cc2cccc(-c3nc(C(N)=O)c(Cl)cc3F)c2)C1=O` [Example 60, 3-chloro-5-fluoro-6-[3-[2-[(3R)-3-hydroxy-1-methyl-2-oxo-pyrrolidin-3-yl]ethynyl]phenyl] pyridine-2-carboxamide], for which the IC50 in experiment [1] (Homo sapiens, HeLa) is not below 20000 nM; in experiment [3] (Homo sapiens), 1390 nM. For the same molecule, the Ki in experiment [2] amounted to 5.61 nM.
The matching figures for `CN1CC[C@@](O)(C#Cc2cccc(-c3cnc(N)c(C(N)=O)n3)c2)C1=O` [Example 62, 3-amino-6-[3-[2-[(3R)-3-hydroxy-1-methyl-2-oxo-pyrrolidin-3-yl]ethynyl]phenyl] pyrazine-2-carboxamide]: 1000 nM, 11.5 nM and 0.11 nM.
In the same order, the values of `CN1CC[C@@](O)(C#Cc2cccc(-c3nc(C(N)=O)cc(-c4cncn4C)n3)c2)C1=O` [Example 66, 2-[3-[2-[(3R)-3-hydroxy-1-methyl-2-oxo-pyrrolidin-3-yl]ethynyl]phenyl]-6-(3-methylimidazol-4-yl) pyrimidine-4-carboxamide] are not below 20000 nM, 139 nM and 0.16 nM.
For the molecule `CCn1nccc1-c1cc(C(N)=O)nc(-c2cccc(C#C[C@]3(O)CCN(C)C3=O)c2)n1` [Example 67, 6-(2-ethylpyrazol-3-yl)-2-[3-[2-[(3R)-3-hydroxy-1-methyl-2-oxo-pyrrolidin-3-yl]ethynyl]phenyl] pyrimidine-4-carboxamide], the IC50 was not below 20000 nM in experiment [1] and 21.8 nM in experiment [3]. The molecule also returned a Ki in experiment [2] (setting [4]) of 0.08 nM.
Consider `CN1CC[C@@](O)(C#Cc2cccc(-c3nc(C(N)=O)cc(-c4ccn(C)n4)n3)c2)C1=O` [Example 68, 2-[3-[2-[(3R)-3-hydroxy-1-methyl-2-oxo-pyrrolidin-3-yl]ethynyl]phenyl]-6-(1-methylpyrazol-3-yl) pyrimidine-4-carboxamide], for which the IC50 in experiment [1] (Homo sapiens, HeLa) is not below 20000 nM; in experiment [3] (Homo sapiens), 89.4 nM. The Ki in experiment [2] stood at 0.53 nM.
With `CN1CC[C@@](O)(C#Cc2cccc(-c3nc(C(N)=O)cc(-c4ccn[nH]4)n3)c2)C1=O` [Example 69, 2-[3-[2-[(3R)-3-hydroxy-1-methyl-2-oxo-pyrrolidin-3-yl]ethynyl]phenyl]-6-(1H-pyrazol-5-yl)pyrimidine-4-carboxamide], the IC50 is not below 20000 nM in experiment [1] (Homo sapiens, HeLa) and 206 nM in experiment [3] (Homo sapiens). This molecule also returned a Ki in experiment [2] of 0.6 nM.
In the same order, the values of `CN1CC[C@@](O)(C#Cc2cccc(-c3nc(C(N)=O)cc(-n4ccnc4)n3)c2)C1=O` [Example 70, 2-[3-[2-[(3R)-3-hydroxy-1-methyl-2-oxo-pyrrolidin-3-yl]ethynyl]phenyl]-6-imidazol-1-yl-pyrimidine-4-carboxamide] are not below 20000 nM, 79 nM and 0.94 nM.
The matching figures for `Cc1ccnn1-c1cc(C(N)=O)nc(-c2cccc(C#C[C@]3(O)CCN(C)C3=O)c2)n1` [Example 71, 2-[3-[2-[(3R)-3-hydroxy-1-methyl-2-oxo-pyrrolidin-3-yl]ethynyl]phenyl]-6-(5-methylpyrazol-1-yl) pyrimidine-4-carboxamide]: not below 20000 nM, 8.94 nM and 0.18 nM.
The matching figures for `CN1CC[C@@](O)(C#Cc2cccc(-c3nc(C(N)=O)c(N)c(-n4cccn4)n3)c2)C1=O` [Example 72, 5-amino-2-[3-[2-[(3R)-3-hydroxy-1-methyl-2-oxo-pyrrolidin-3-yl]ethynyl]phenyl]-6-pyrazol-1-yl-pyrimidine-4-carboxamide]: 6320 nM, 6.43 nM and 0.05 nM.
